According to publication PMC10886162, “Synthesis of Novel Artemisinin, Ciprofloxacin, and Norfloxacin Hybrids with Potent Antiplasmodial Activity” (Antibiotics, 2024):

Tests used:
[1] = test system: CQ-resistant P. falciparum FcB1 strain; experiment: In vitro growth inhibition of P. falciparum FcB1 ([3H]-hypoxanthine incorporation); type: cell-based, Plasmodium falciparum; conditions: for Selectivity Index (IC50 AB943/IC50 FcB1): ratio of cytotoxicity IC50 to antiplasmodial IC50 (FcB1)
Method: (§1) The chloroquine-resistant FcB1/Colombia and Dd2/Indochina strains of Plasmodium falciparum were obtained from the Protist Collection of the National Museum of Natural History, Paris, France (n° MNHN-CEU-2016-224-PfFCB1 and MNHN-CEU-2016-222-PfDD2). The parasites were maintained in vitro on human erythrocytes in RPMI 1640 medium supplemented by 8% (v/v) heat-inactivated human serum, at 37 °C, under an atmosphere of 5% CO2. The human red blood cells and serum were provided by the Établissement Français du Sang under the C-CPSL-UNT approval no. 13/EFS/126. The in vitro drug susceptibility assays were measured by [^3H]-hypoxanthine incorporation, as previously described. The drug stock solutions were prepared in DMSO. Briefly, the assays were performed in 96-well plates. The compounds were diluted in the culture medium (100 μL per well). The parasite cultures (100 μL, 2% parasitaemia, and 1% final hematocrit) were then added to each well and incubated for 24 h at 37 °C prior to the addition of 0.5 μCi of [^3H]- hypoxanthine (GE Healthcare, Paris, France, 1 to 5 Ci·mmol/mL) per well. After a further incubation of 24 h, the plates were frozen and thawed. The cell lysates were then collected onto fiberglass filters and counted in a liquid scintillation spectrometer. The growth inhibition for each drug concentration was determined through a comparison of the radioactivity incorporated in the treated culture with that in the control culture maintained on the same plate. The drugs were first evaluated for a range of fixed concentrations of 50, 5, 0.5, 0.05, and 0.005 μg/mL. […] The IC50 value was obtained from the drug concentration–response curve, and the results were expressed in μM or nM as the mean values ± standard deviations determined from several independent experiments. Artesunate (46) was used as an antimalarial drug control.

[2] = test system: CQ-resistant Dd2 strain of P. falciparum; experiment: In vitro growth inhibition of P. falciparum Dd2 ([3H]-hypoxanthine incorporation); type: cell-based, Plasmodium falciparum; conditions: for IC50: Plasmodium falciparum, CQ-resistant Dd2, mean +/− SD of at least three independent experiments; for Selectivity Index (IC50 AB943/IC50 Dd2): ratio of cytotoxicity IC50 to antiplasmodial IC50 (Dd2)
Method: as §1

[3] = test system: human primary fibroblasts AB943; experiment: Cytotoxicity upon human primary fibroblasts AB943 (resazurin); type: cell-based; conditions: Fibroblast, 72 h, mean +/− SD of at least three independent experiments
Method: A cellular cytotoxicity evaluation was performed upon human primary fibroblasts AB943, as previously described. The assays were realized in 96-well plates in DMEM + Glutamax without phenol red medium containing 25 mM HEPES, a pH of 7.3, and 10% of fetal calf serum under a 5% CO2 atmosphere, at 37 °C. After trypsin treatment, the AB943 cells were seeded at 2000 cells per well in 100 μL. After 24 h of incubation, drugs diluted in the culture medium were added (100 μL per well). The drug stock solutions were prepared in dimethyl sulfoxide (DMSO). The final DMSO concentration in the cultures remained below 1%. Control cultures were constituted of cultures treated with DMSO instead of the drug. The cytotoxicity assay was based on the conversion of a redo-sensitive dye (resazurin) to a fluorescent product via viable cells. After 72 h of incubation, the resazurin solution was added in each well at a final concentration of 45 μM. The fluorescence was measured at 530 nm excitation and 590 nm emission wavelengths after 4 h of incubation. The percentage of the inhibition of cell growth was calculated by comparing the fluorescence of cells maintained in the presence of the drug to that in the absence of the drug. The concentration causing 50% growth inhibition (IC50) was obtained from the drug concentration–response curve, and the results were expressed as the mean values ± standard deviations determined from several experiments.

[4] = Plasmodium falciparum, FCB1, CQ-resistant FcB1, IC50 determined from the compound tested at 50, 5, 0.5 µg/mL and 50 and 5 ng/mL in triplicate (footnote b)
[5] = Plasmodium falciparum, FCB1, CQ-resistant FcB1, mean +/− standard deviation of independent experiments (at least four in Tables 1-2, at least three in Tables 3-4)
[6] = CQ-resistant FcB1, IC50 determined from the compound tested at 50, 5, 0.5 µg/mL and 50 and 5 ng/mL in triplicate (footnote b)
[7] = Plasmodium falciparum, FCB1, Table 5, CPX or NRX fragments alone

**Q.** Which IC50 [1, 4] does the source give for `CCOC(=O)c1cn(C2CC2)c2cc(N3CCNCC3)c(F)cc2c1=O` [Compound 38] here?
**A.** 53.6 µM

**Q.** For `CCCCOC(=O)c1cn(CC)c2cc(N3CCN(C(=O)C[C@H]4O[C@@H]5O[C@@]6(C)CCC7[C@H](C)CCC([C@H]4C)[C@]75OO6)CC3)c(F)cc2c1=O` (stereo partly drawn) [Compound 19, Butyl 1-ethyl-6-fluoro-4-oxo-7-(4-(2-((3R,6R,9R,10R,12R,12aR)-3,6,9-trimethyldecahydro-12H-3,12-epoxy[1,2]dioxepino[4,3-i]isochromen-10-yl)acetyl)piperazin-1-yl)-1,4-dihydroquinoline-3-carboxylate], which IC50 [1, 5] is on record?
**A.** 0.0139 µM

**Q.** And the “Selectivity Index (IC50 AB943/IC50 FcB1)” value [1]?
**A.** 1294

**Q.** What about the IC50 [2] of the same compound?
**A.** 0.0384 µM

**Q.** What about the “Selectivity Index (IC50 AB943/IC50 Dd2)” value [2] of the same compound?
**A.** 469

**Q.** And the IC50 [3]?
**A.** 18 µM

**Q.** What about the melting point of the same compound?
**A.** 151 to 152 °C

**Q.** Which IC50 [1, 4] does the source give for `CCCCOC(=O)c1cn(C2CC2)c2cc(N3CCN(C(=O)CC[C@H]4O[C@@H]5O[C@@]6(C)CCC7[C@H](C)CCC([C@H]4C)[C@]75OO6)CC3)c(F)cc2c1=O` (stereo partly drawn) [Compound 17, Butyl 1-cyclopropyl-6-fluoro-4-oxo-7-(4-(3-((3R,6R,9R,10R,12R,12aR)-3,6,9-trimethyldecahydro-12H-3,12-epoxy[1,2]dioxepino[4,3-i]isochromen-10-yl)propanoyl)piperazin-1-yl)-1,4-dihydroquinoline-3-carboxylate] here?
**A.** 0.362 µM

**Q.** Which IC50 [1, 4] does the source give for `O=C(c1cn(C2CC2)c2cc(N3CCN(C(c4ccccc4)(c4ccccc4)c4ccccc4)CC3)c(F)cc2c1=O)N1CCN(c2ccnc3cc(Cl)ccc23)CC1` [Compound 36, 3-(4-(7-chloroquinolin-4-yl)piperazine-1-carbonyl)-1-cyclopropyl-6-fluoro-7-(4-tritylpiperazin-1-yl)quinolin-4(1H)-one] here?
**A.** 26.5 µM

**Q.** For `CCn1cc(C(=O)O)c(=O)c2cc(F)c(N3CCNCC3)cc21` [NRX, norfloxacin], which IC50 [1, 4] is on record?
**A.** 81.4 µM

**Q.** Which IC50 [1, 6] does the source give for `CC1CCC2C(C)C(CC(=O)O)OC3OC4(C)CCC1C32OO4` (stereo not shown) [Compound 44, reference compound] here?
**A.** 0.401 µM

**Q.** And the IC50 [1, 4]?
**A.** 0.401 µM

**Q.** What does the source list for `C[C@@H]1CCC2[C@@H](C)[C@@H](CCC(=O)N3CCN(c4cc5c(cc4F)c(=O)c(C(=O)O)cn5C4CC4)CC3)O[C@@H]3O[C@@]4(C)CCC1[C@@]23OO4` (stereo partly drawn) [Compound 13, 1-cyclopropyl-6-fluoro-4-oxo-7-(4-(3-((3R,6R,9R,10R,12R,12aR)-3,6,9-trimethyldecahydro-12H-3,12-epoxy[1,2]dioxepino[4,3-i]isochromen-10-yl)propanoyl)piperazin-1-yl)-1,4-dihydroquinoline-3-carboxylic acid]?
**A.** IC50 [1, 4]: 2.91 µM; melting point: 136 to 137 °C

**Q.** With `CCn1cc(C(=O)N2CCN(c3ccnc4cc(Cl)ccc34)CC2)c(=O)c2cc(F)c(N3CCN(C(=O)C[C@H]4O[C@@H]5O[C@@]6(C)CCC7[C@H](C)CCC([C@H]4C)[C@]75OO6)CC3)cc21` (stereo partly drawn) [Compound 27, 3-(4-(7-chloroquinolin-4-yl)piperazine-1-carbonyl)-1-ethyl-6-fluoro-7-(4-(2-((3R,6R,9R,10R,12R,12aR)-3,6,9-trimethyldecahydro-12H-3,12-epoxy[1,2]dioxepino[4,3-i]isochromen-10-yl)acetyl)piperazin-1-yl)quinolin-4(1H)-one] as the compound, how does the IC50 [1, 5] read?
**A.** 0.0066 µM

**Q.** And the IC50 [2]?
**A.** 0.0285 µM

**Q.** And the melting point?
**A.** 173.6 to 174.5 °C

**Q.** For `CCn1cc(C(=O)N2CCN(c3ccnc4cc(Cl)ccc34)CC2)c(=O)c2cc(F)c(N3CCNCC3)cc21` [Compound 43], which IC50 [1, 5] is on record?
**A.** 0.476 µM

**Q.** What about the “Selectivity Index (IC50 AB943/IC50 FcB1)” value [1] of the same compound?
**A.** 27

**Q.** And the IC50 [2]?
**A.** 0.483 µM

**Q.** And the “Selectivity Index (IC50 AB943/IC50 Dd2)” value [2]?
**A.** 26

**Q.** And the IC50 [3]?
**A.** 12.7 µM

**Q.** With `O=C(O)c1cn(C2CC2)c2cc(N3CCNCC3)c(F)cc2c1=O` [CPX, ciprofloxacin] as the compound, how does the IC50 [1, 4] read?
**A.** 54.1 µM

**Q.** For `CCOC(=O)c1cn(C2CC2)c2cc(N3CCN(C(c4ccccc4)(c4ccccc4)c4ccccc4)CC3)c(F)cc2c1=O` [Compound 32, Ethyl 1-cyclopropyl-6-fluoro-4-oxo-7-(4-tritylpiperazin-1-yl)-1,4-dihydroquinoline-3-carboxylate], which IC50 [1, 4] is on record?
**A.** 41.9 µM

**Q.** With `CCCCOC(=O)c1cn(CC)c2cc(N3CCNCC3)c(F)cc2c1=O` [Compound 41] as the compound, how does the IC50 [1, 4] read?
**A.** 13.9 µM

**Q.** And the IC50 [1, 7]?
**A.** 8.6 µM

**Q.** Which IC50 [1, 6] does the source give for `O=C(c1cn(C2CC2)c2cc(N3CCNCC3)c(F)cc2c1=O)N1CCN(c2ccnc3cc(Cl)ccc23)CC1` [Compound 42] here?
**A.** 0.36 µM

**Q.** What about the IC50 [1, 4] of the same compound?
**A.** 0.36 µM

**Q.** For `CCOC(=O)c1cn(CC)c2cc(N3CCNCC3)c(F)cc2c1=O` [Compound 40], which IC50 [1, 4] is on record?
**A.** 19.7 µM

**Q.** And the IC50 [1, 7]?
**A.** 45.7 µM

**Q.** Which results are given for `CCCCOC(=O)c1cn(C2CC2)c2cc(N3CCNCC3)c(F)cc2c1=O` [Compound 39]?
**A.** IC50 [1, 4]: 13.6 µM; IC50 [1, 7]: 7 µM

**Q.** Which IC50 [1, 6] does the source give for `CC1CCC2C(C)C(CCC(=O)O)OC3OC4(C)CCC1C32OO4` (stereo not shown) [Compound 45, reference compound] here?
**A.** 0.264 µM

**Q.** And the IC50 [1, 4]?
**A.** 0.264 µM

**Q.** Which IC50 [1, 5] does the source give for `CCn1cc(C(=O)N2CCN(c3ccnc4cc(Cl)ccc34)CC2)c(=O)c2cc(F)c(N3CCN(C(c4ccccc4)(c4ccccc4)c4ccccc4)CC3)cc21` [Compound 37, 3-(4-(7-chloroquinolin-4-yl)piperazine-1-carbonyl)-1-ethyl-6-fluoro-7-(4-tritylpiperazin-1-yl)quinolin-4(1H)-one] here?
**A.** 0.184 µM

**Q.** What about the IC50 [2] of the same compound?
**A.** 0.307 µM

**Q.** Which IC50 [1, 4] does the source give for `CCOC(=O)c1cn(C2CC2)c2cc(N3CCN(C(=O)CC[C@H]4O[C@@H]5O[C@@]6(C)CCC7[C@H](C)CCC([C@H]4C)[C@]75OO6)CC3)c(F)cc2c1=O` (stereo partly drawn) [Compound 15, Ethyl 1-cyclopropyl-6-fluoro-4-oxo-7-(4-(3-((3R,6R,9R,10R,12R,12aR)-3,6,9-trimethyldecahydro-12H-3,12-epoxy[1,2]dioxepino[4,3-i]isochromen-10-yl)propanoyl)piperazin-1-yl)-1,4-dihydroquinoline-3-carboxylate] here?
**A.** 1.47 µM

**Q.** What about the melting point of the same compound?
**A.** 110.4 to 111.5 °C

**Q.** For `CCCCOC(=O)c1cn(CC)c2cc(N3CCN(C(c4ccccc4)(c4ccccc4)c4ccccc4)CC3)c(F)cc2c1=O` [Compound 35, Butyl 1-ethyl-6-fluoro-4-oxo-7-(4-tritylpiperazin-1-yl)-1,4-dihydroquinoline-3-carboxylate], which IC50 [1, 4] is on record?
**A.** 26.2 µM

**Q.** Which IC50 [1, 4] does the source give for `CCOC(=O)c1cn(CC)c2cc(N3CCN(C(c4ccccc4)(c4ccccc4)c4ccccc4)CC3)c(F)cc2c1=O` [Compound 34, Ethyl 1-ethyl-6-fluoro-4-oxo-7-(4-tritylpiperazin-1-yl)-1,4-dihydroquinoline-3-carboxylate] here?
**A.** 84.8 µM

**Q.** What does the source list for `CCOC(=O)c1cn(C2CC2)c2cc(N3CCN(C(=O)C[C@H]4O[C@@H]5O[C@@]6(C)CCC7[C@H](C)CCC([C@H]4C)[C@]75OO6)CC3)c(F)cc2c1=O` (stereo partly drawn) [Compound 14, Ethyl 1-cyclopropyl-6-fluoro-4-oxo-7-(4-(2-((3R,6R,9R,10R,12R,12aR)-3,6,9-trimethyldecahydro-12H-3,12-epoxy[1,2]dioxepino[4,3-i]isochromen-10-yl)acetyl)piperazin-1-yl)-1,4-dihydroquinoline-3-carboxylate]?
**A.** IC50 [1, 4]: 0.121 µM; melting point: 142 to 143 °C

**Q.** Which IC50 [1, 4] does the source give for `CCCCOC(=O)c1cn(C2CC2)c2cc(N3CCN(C(c4ccccc4)(c4ccccc4)c4ccccc4)CC3)c(F)cc2c1=O` [Compound 33, Butyl 1-cyclopropyl-6-fluoro-4-oxo-7-(4-tritylpiperazin-1-yl)-1,4-dihydroquinoline-3-carboxylate] here?
**A.** 3.9 µM
